Earlier results as cited in PMC3983144 (Bioconjugate chemistry, 2014).
pIC50: −log10 of the molar value. Square brackets hold non-standard residues; d marks the D form. Nle = CCCC[C@H](N)C(=O)O

System: MC1R
Settings: B16F1 melanoma cells

pIC50: 9.57
Substance: Ac-[Nle]DH[dF]RWGK-NH2 [NAPamide]
